Reference: patent publication US10413583B2, “Synthetic substrates for enzymes that catalyze reactions of modified cysteines and related methods” (The University of Chicago, priority 2016, dated 2019)

What was measured:
APT1 = target: T1, APT1 (Homo sapiens, UniProt O75608); test: In vitro kinetic assays of RDP-1 and RDP-2 with APT1; type: biochemical; conditions: 1 μM probe, 200 nM enzyme, 20 min
T1 construct: His-tag; made in house; host or cells: E. coli ROSETTA DE3
Procedure: (§1) 100 μL of 400 nM of APT1 or APT2, or buffer without added enzymes, were added to buffer (20 mM HEPES, 150 mM NaCl, 0.1% Triton X-100, pH 7.4, degassed by bubbling N2 through the solution for 1 h) and prewarmed to 37° C. in a heating block for 5 min. The buffer solutions were then added using a multichannel pipet to a black-walled clear-bottom 96-well plate (Nunc, Roskilde, Denmark) containing 100 μL of 2 μM RDP-1 or RDP-2 in buffer (20 mM HEPES, 150 mM NaCl, 0.1% Triton X-100, pH 7.4, 0.15% DMSO) that had been pre-warmed in the plate reader at 37° C. for 5 min, resulting in a final concentration of 200 nM APT1 or APT2, 1 μM RDP-1 or RDP-2, and 0.1% DMSO. Fluorescent intensities λex1=430/24 nm, λem1=470/24 nm; λex2=480/20, λem2=575/40; gain=75; No. of flashes=8) were obtained as a ratio of em1/em2 in kinetic mode in 30 s intervals for 30 min.

[1] = test system: catalytically inactive APTs (APT1(S119A), APT2(S122A)); test: In vitro kinetic assays of RDP-1 and RDP-2 with catalytically inactive enzymes; type: biochemical, human; conditions: 10 times more APT1(S119A) and APT2(S122A) enzyme
APT2 = target: T2, APT2 (Homo sapiens, UniProt O95372); test: In vitro kinetic assays of RDP-1 and RDP-2 with APT2; type: biochemical; conditions: 1 μM probe, 200 nM enzyme, 20 min
T2 construct: His-tag; made in house; host or cells: E. coli ROSETTA DE3
Procedure: as §1

[2] = Stability of RDP-1 and RDP-2 with biological reductant (GSH); type: physicochemical; conditions: 1 μM probe, 20 mM GSH, pH 7.4 buffer
Procedure: RDP-1 or RDP-2 were added to buffer (20 mM HEPES, 150 mM NaCl, 0.1% Triton X-100, pH 7.4, degassed by bubbling N2 through the solution for 1 h) prewarmed to 37° C. in a heating block for 5 min containing no reducing agent or GSH using a multichannel pipet to at least three wells of a black-walled clear-bottom 96-well plate (Nunc, Roskilde, Denmark; Final concentration: 1 μM RDP-1/RDP-2, 20 mM GSH, 20 mM HEPES, 150 mM NaCl, 0.1% Triton X-100, pH 7.4, 4.1% DMSO). Fluorescent intensities (λex1=430/25 nm, λeml=470/24 nm; λex2=480/20, λem2=575/40; gain=75; No. of flashes=10) were obtained as a ratio of em1/em2 in kinetic mode in 30 s intervals for 30 min.

HEK293T cells = test: Fluorescence imaging of RDP-1 and RDP-2 with HEK293T cells; type: cell-based, human; conditions: 1 μM probe for 10 min
Procedure: HEK293T were plated with […] of DMEM (Gibco, Gaithersburg, Md., United States of America; High Glucose, Glutamax, 10% FBS) a four well chambered imaging dish (D35C4-20-1.5-N, Cellvis, Mountain View, Calif., United States of America) which were precoated with 4 μg Poly-D-lysine (30-70 kilodalton (KDa), Alfa Aesar, Haverhill, Mass., United States of America) for 2 h at room temperature or overnight at 4° C. and grown to ca. 80% confluence prior to imaging. 30 min before the addition of the RDP, the cell culture media was removed and cells were washed with 500 μL of serum-free DMEM (Gibco, Gaithersburg, Md., United States of America, High Glucose, Glutamax, no FBS). The media was then replaced with 500 μL of serum-free DMEM containing 100 nM Mitotracker Deep Red (Thermo Fisher Scientific, Waltham, Mass., United States of America; to assist in focusing and processing) and either 0.1% DMSO carrier as a control or Palm B, ML348, or ML349 in DMSO and incubated for 30 min at 37° C. and 5% CO2. The media was removed, the cells were washed with 500 μL of Live Cell Imaging Solution (Thermo Fisher Scientific, Waltham, Mass., United States of America), and 500 μL of 1 μM RDP-1 or RDP-2 along with the appropriate inhibitor or DMSO as control in Live Cell Imaging Solution was added to each well. After incubation for 10 min at 37° C. and 5% CO2, the cells were washed with 500 μL Live Cell Imaging Solution and 500 μL of Live Cell Imaging Solution containing DMSO or the appropriate inhibitor was added to the cells immediately before images were obtained on an inverted epi-fluorescence microscope (Olympus IX83; Olympus Corporation, Tokyo, Japan) attached with EMCCD camera (Photometrics EVOLVE™ Delta; Photometrics, Tucson, Ariz., United States of America) with 40× oil objective (N/A 1.3) for RDP-1 (excitation filter 1 430/24 nm, dichroic chroma 89007, emission filter 1 470/24 nm, exposure time 100 ms, EM gain 80, excitation filter 2 480/20 nm, dichroic chroma 49014, emission filter 2 575/40 nm, exposure time 70 ms, EM gain 50) or for RDP-2 (excitation filter 1 430/24 nm, dichroic chroma 89007, emission filter 1 470/24 nm, exposure time 70 ms, EM gain 50, excitation filter 2 480/20, dichroic chroma 49014, emission filter 2 575/40 nm, exposure time 50 ms, EM gain 30), brightfield (exposure time 50 ms, EM gain 30), and MitoTracker Deep Red: (excitation filter 640/30 nm, emission filter 705/72 nm, dichroic chroma 89016, exposure time 15 ms, EM gain 15). Analyses were performed in ImageJ as described below. Each experiment was repeated at least three separate times with identical results.
The probe channel data were expressed as a ratio of the blue channel divided by the green channel and normalized to the average fluorescence intensity of the control conditions. To eliminate errors from autofluorescence, the images were thresholded using the bluer channel images at the same minimum level that included the maximum number of cells in focus (as determined visually by the mitocondrial dye) while limiting the signal from areas where cells are not present. The average value of all nonzero pixels from the blue channel:green channel ratio image were calculated in ImageJ for three different measurements from each experiment. The percent deprotected was estimated by imaging RDP-1/2 in buffer (20 mM HEPES, 150 mM NaCl, 0.1% Triton X-100, pH 7.4, 0.1% DMSO) and for dye deprotected with 20 mM DTT in buffer (20 mM HEPES, 150 mM NaCl, 0.1% Triton X-100, pH 7.4, 0.1% DMSO) for 1 h at room temperature before aliquoted into individual tubes and stored at −80° C. A fresh aliquot of the solution was thawed for each experiment and diluted to 250 nM (RDP-1) or 500 nM (RDP-2) in buffer (20 mM HEPES, 150 mM NaCl, 0.1% Triton X-100, pH 7.4, 10 mM DTT) and allowed to equilibrate for 30 m before being imaged. […]

T1 sequence (O75608 whole entry): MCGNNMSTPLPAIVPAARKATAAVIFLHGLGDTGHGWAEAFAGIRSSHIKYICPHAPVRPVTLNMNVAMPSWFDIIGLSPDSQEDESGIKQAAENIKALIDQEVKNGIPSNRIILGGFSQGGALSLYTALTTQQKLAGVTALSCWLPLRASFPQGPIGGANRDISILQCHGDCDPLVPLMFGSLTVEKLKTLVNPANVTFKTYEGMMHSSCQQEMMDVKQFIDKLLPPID
T2 sequence (O95372 whole entry): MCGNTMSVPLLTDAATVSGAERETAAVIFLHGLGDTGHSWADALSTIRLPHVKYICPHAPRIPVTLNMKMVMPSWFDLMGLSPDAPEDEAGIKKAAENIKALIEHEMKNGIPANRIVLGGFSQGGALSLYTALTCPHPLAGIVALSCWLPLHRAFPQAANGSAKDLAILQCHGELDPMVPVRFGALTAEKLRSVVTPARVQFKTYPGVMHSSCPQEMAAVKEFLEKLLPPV

SMILES	ratio change of ratiometric response (APT1)	response to catalytically inactive APTs [1]	ratio change of ratiometric response (APT2)	response to 20 mM glutathione [2]	depalmitoylation of probe (percent deprotected dye) (HEK293T cells)
CCCCCCCC(=O)SC[C@@H](C(=O)NC)N(C)C(=O)/C(C#N)=C/c1c(C)c2cc3c4c(c2oc1=O)CCCN4CCC3 [RDP-1, (2E)-2-cyano-N-methyl-3-{6-methyl-4-oxo-3-oxa-13-azatetracyclo[7.7.1.0^2,7.0^13,17]heptadeca-1,5,7,9(17)-tetraen-5-yl}-N-[(1R)-1-(methylcarbamoyl)-2-(octanoylsulfanyl)ethyl]prop-2-enamide]	0.7 to 34	Neither RDP-1 nor RDP-2 responds	0.7 to 34	Neither RDP-1 nor RDP-2 responds	about 28%
CCCCCCCC(=O)SC[C@@H](C(=O)N[C@@H](CCCCN)C(=O)OC)N(C)C(=O)/C(C#N)=C/c1c(C)c2cc3c4c(c2oc1=O)CCCN4CCC3 [RDP-2, (5S)-5-[(2R)-2-[(2E)-2-cyano-N-methyl-3-{6-methyl-4-oxo-3-oxa-13-azatetracyclo[7.7.1.0^2,7.0^13,17]heptadeca-1,5,7,9(17)-tetraen-5-yl}prop-2-enamido]-3-(octanoylsulfanyl)propanamido]-6-methoxy-6-oxohexan-1-aminium]	1.9 to 16	Neither RDP-1 nor RDP-2 responds	1.9 to 16	Neither RDP-1 nor RDP-2 responds	~18%
